Here are results for 36 compounds from the supplement of paper PMC7224384.

For assay [1], the system named is MDA-MB-453. Description: drug sensitivity score (DSS), single agent (DSS (weighted AUC score)); higher = more sensitive (stronger viability decrease); extreme values may be limits of the assay. To be noted: BLU9931 0 nM; 72 h. In short, it runs like this:
(§1)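 Compounds from the FIMM Oncology set were predispensed in singlicate at five 10-fold dilutions (10,000-fold range) on 384-well plates. Each well then received 2000 MDA-MB-453 cells in medium with or without an FGFR4 inhibitor (100 nM final) and was kept at 37 °C, 5% CO2. Cellular ATP was read with CellTiterGlo 2.0 after 72 h and normalised per plate to percent viability from control wells. The drug sensitivity score is a weighted area under a four-parameter logistic fit.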

Assay [2] concerns MDA-MB-453. Description: drug sensitivity score (DSS), in combination with BLU9931 (DSS (weighted AUC score)); higher = more sensitive (stronger viability decrease); extreme values may be limits of the assay. To be noted: BLU9931 100 nM; 72 h. In short, it runs like this: as §1

For the compound `CO[C@H]1C[C@@H]2CC[C@@H](C)[C@@](O)(O2)C(=O)C(=O)N2CCCC[C@H]2C(=O)O[C@H]([C@H](C)C[C@@H]2CC[C@@H](OCCO)[C@H](OC)C2)CC(=O)[C@H](C)/C=C(\C)[C@@H](O)[C@@H](OC)C(=O)[C@H](C)C[C@H](C)/C=C/C=C/C=C/1C` [Everolimus], the drug sensitivity score turned out to be 9.5 in assay [1] and 13.6 in assay [2].
In the same order, the values of `C=C1C[C@@H]2[C@H](CC[C@]3(C)C(=O)CC[C@@H]23)[C@@]2(C)C=CC(=O)C=C12` [Exemestane] are 4.8 and 0.
For `CCn1c(=O)c(-c2ccc(Cl)cc2Cl)cc2cnc(Nc3ccc(N4CCNCC4)c(F)c3)nc21` [FRAX486], the drug sensitivity score came to 3.9 in assay [1] and 1.1 in assay [2].
On the same counts, the results for `Cc1cnc(Nc2ccc(OCCN3CCCC3)cc2)nc1Nc1cccc(S(=O)(=O)NC(C)(C)C)c1` [Fedratinib] are 8.3 and 6.3.
In the same order, the values of `CON(C)C(=O)N1N=C(c2cc(F)ccc2F)S[C@@]1(CCCN)c1ccccc1` [Filanesib] are 16.7 and 15.3.
On the same counts, the results for `O=C(Nc1nc2cccc(-c3ccc(CN4CCS(=O)(=O)CC4)cc3)n2n1)C1CC1` [Filgotinib] are 2.9 and 2.5.
As for `CC(C)(C)NC(=O)[C@H]1CC[C@H]2[C@@H]3CC[C@H]4NC(=O)C=C[C@]4(C)[C@H]3CC[C@]12C` [Finasteride], the drug sensitivity score in assay [1] came to 0.3; in assay [2], 0.
On the same counts, the results for `CCCCCCCCc1ccc(CCC(N)(CO)CO)cc1` [Fingolimod] are 8.7 and 7.7.
`O=c1[nH]c(=O)n([C@H]2C[C@H](O)[C@@H](CO)O2)cc1F` [Floxuridine]: the drug sensitivity score came out at 4.9 in assay [1] and 2 in assay [2].
In the same order, the values of `Nc1nc(F)nc2c1ncn2[C@@H]1O[C@H](CO)[C@@H](O)[C@@H]1O` [Fludarabine] are 0 and 0.
On the same counts, the results for `O=c1[nH]cc(F)c(=O)[nH]1` [Fluorouracil] are 2.1 and 0.1.
In the same order, the values of `CC(C)C(=O)Nc1ccc([N+](=O)[O-])c(C(F)(F)F)c1` [Flutamide] are 0 and 0.
Take `COc1cc2c(Oc3ccc(NC(=O)C4(C(=O)Nc5ccc(F)cc5)CC4)cc3F)ccnc2cc1OCCCN1CCOCC1` [Foretinib]: the values for the drug sensitivity score in assay [1] and in assay [2] were 1.1 and 1.2, respectively.
In the same order, the values of `COc1cc(Nc2ncc(F)c(Nc3ccc4c(n3)N(COP(=O)(O)O)C(=O)C(C)(C)O4)n2)cc(OC)c1OC` [Fostamatinib] are 0.1 and 0.
On to `C[C@]12CC[C@@H]3c4ccc(O)cc4C[C@@H](CCCCCCCCC[S+]([O-])CCCC(F)(F)C(F)(F)F)[C@H]3[C@@H]1CC[C@@H]2O` (some centres not stated) [Fulvestrant], for which the drug sensitivity score in assay [1] and in assay [2] was 0 throughout.
Take `CC1(C)OCCn2c1nc1c(N3CCOCC3)nc(-c3cnc(N)nc3)nc12` [GDC-0084]: the drug sensitivity score in assay [1] came to 16.4; in assay [2] it was 17.4.
On the same counts, the results for `O=C(NOCCO)c1ccc2cncn2c1Nc1ccc(I)cc1F` [GDC-0623] are 0.4 and 0.5.
`C[C@H]1CN(C2COC2)CCN1c1ccc(Nc2cc(-c3ccnc(N4CCn5c(cc6c5CC(C)(C)C6)C4=O)c3CO)cn(C)c2=O)nc1` [GDC-0853]: the drug sensitivity score in assay [1] and in assay [2] was 0 each time.
With `O[C@H](C[C@H]1c2c(F)cccc2-c2cncn21)[C@H]1CC[C@H](O)CC1` [GDC-0919], the drug sensitivity score in assay [1] and in assay [2] was 0 in each case.
In the case of `CNc1nc(Nc2cn(C(C)(C)C#N)nc2C)ncc1C(F)(F)F` [GNE-0877], the drug sensitivity score in assay [1] and in assay [2] was 0 in each case.
With `CCNc1nc(Nc2cc(F)c(C(=O)N3CCOCC3)cc2OC)ncc1C(F)(F)F` [GNE-7915], the drug sensitivity score in assay [1] and in assay [2] was 0 each time.
For `CCCc1cc(C)[nH]c(=O)c1CNC(=O)c1cc(-c2ccnc(N3CCN(C)CC3)c2)cc2c1cnn2C(C)C` [GSK343], the drug sensitivity score in assay [1] and in assay [2] was 0 each time.
Take `CCCOc1ccn2c(C(C)=O)cc(-c3ccccc3S(C)(=O)=O)c2c1` [GSK2801]: the drug sensitivity score in assay [1] and in assay [2] was 0 in each case.
As for `CCOC(=O)CCNc1cc(N2CCc3ccccc3CC2)nc(-c2ccccn2)n1` [GSK-J4], the drug sensitivity score in assay [1] is 13.2; in assay [2] it was 14.
On the same counts, the results for `C[C@@H]1C=C2C(=O)O[C@@H]3CC[C@H](C1)[C@]23O` [Galiellalactone] are 7.4 and 7.7.
Take `Cc1cccc(-c2nn3c(c2-c2ccnc4ccc(C(N)=O)cc24)CCC3)n1` [Galunisertib]: the drug sensitivity score in assay [1] and in assay [2] was 0 in each case.
In the case of `Cc1cc(Nc2cc(CN3CCOCC3)c3nc(C)c(Cc4ccc(Cl)cc4F)n3n2)n[nH]1` [Gandotinib], the drug sensitivity score in assay [1] turned out to be 5; in assay [2], 1.2.
Regarding `CC(C)c1cc(-c2n[nH]c(=O)n2-c2ccc3c(ccn3C)c2)c(O)cc1O` [Ganetespib], the drug sensitivity score in assay [1] amounted to 18.7; in assay [2] it was 18.5.
In the same order, the values of `CN(C)C1CCN(C(=O)c2ccc(NC(=O)Nc3ccc(-c4nc(N5CCOCC5)nc(N5CCOCC5)n4)cc3)cc2)CC1` [Gedatolisib] are 22.9 and 23.7.
Take `COc1cc2ncnc(Nc3ccc(F)c(Cl)c3)c2cc1OCCCN1CCOCC1` [Gefitinib]: the results for the drug sensitivity score in assay [1] and in assay [2] were 6.9 and 8, respectively.
In the same order, the values of `Nc1ccn([C@@H]2O[C@H](CO)[C@@H](O)C2(F)F)c(=O)n1` [Gemcitabine] are 6.9 and 6.
In the same order, the values of `CCc1nc(C(N)=O)c(Nc2ccc(N3CCC(N4CCN(C)CC4)CC3)c(OC)c2)nc1NC1CCOCC1` [Gilteritinib] are 0 and 0.
With `CCN(CC)Cc1ccc2cc(COC(=O)Nc3ccc(C(=O)NO)cc3)ccc2c1` [Givinostat], the results for the drug sensitivity score in assay [1] and in assay [2] were 11 and 10.3, respectively.
On the same counts, the results for `CN1CC[C@@H](NC(=O)Nc2ccc(C#N)cc2)C[C@@H]1c1nc2ccccc2[nH]1` [Glasdegib] are 0 and 0.
With `COCCNCc1ccc(-c2cc3nccc(Oc4ccc(NC(=S)NC(=O)Cc5ccc(F)cc5)cc4F)c3s2)nc1` [Glesatinib], the drug sensitivity score in assay [1] stood at 0.7; in assay [2], 0.5.
With `CN1CCN(C2CCN(C(=O)Nc3cc(Oc4ccc(NC(=O)C5(C(=O)Nc6ccc(F)cc6)CC5)c(F)c4)ccn3)CC2)CC1` [Golvatinib], the drug sensitivity score in assay [1] is 0.3; in assay [2], 0.
